Laboratory results: the supplement of paper PMC10307832

Legend:
Assay in all cases: relative viability (nuclei count vs DMSO), 5 days (fraction); higher = more cells survive
CUDC-101 + Lapatinib = compound: C#Cc1cccc(Nc2ncnc3cc(OC)c(OCCCCCCC(=O)NO)cc23)c1 [CUDC-101] + CS(=O)(=O)CCNCc1ccc(-c2ccc3ncnc(Nc4ccc(OCc5cccc(F)c5)c(Cl)c4)c3c2)o1 [Lapatinib] (partner 2 µM)
Procedure, shortened: (§1)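 Five library-drug doses in √10 steps were combined with a fixed anchor-drug dose, or a single drug was given alone, by pin tool to lung cancer cell lines in 1536-well plates the day after seeding. Nuclei were stained and counted after 5 days. Relative viability is the nuclei count in treated wells over that in vehicle wells, taken as the median of duplicate plates.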

CUDC-101 + Olaparib = compound: C#Cc1cccc(Nc2ncnc3cc(OC)c(OCCCCCCC(=O)NO)cc23)c1 [CUDC-101] + O=C(c1cc(Cc2n[nH]c(=O)c3ccccc23)ccc1F)N1CCN(C(=O)C2CC2)CC1 [Olaparib] (partner 8 µM)
Procedure, shortened: as §1

NVP-TAE684 + Bortezomib = compound: COc1cc(N2CCC(N3CCN(C)CC3)CC2)ccc1Nc1ncc(Cl)c(Nc2ccccc2S(=O)(=O)C(C)C)n1 [NVP-TAE684] + CC(C)C[C@H](NC(=O)[C@H](Cc1ccccc1)NC(=O)c1cnccn1)B(O)O [Bortezomib] (partner 0.002 µM)
Procedure, shortened: as §1

NVP-TAE684 + Navitoclax = compound: COc1cc(N2CCC(N3CCN(C)CC3)CC2)ccc1Nc1ncc(Cl)c(Nc2ccccc2S(=O)(=O)C(C)C)n1 [NVP-TAE684] + CC1(C)CCC(c2ccc(Cl)cc2)=C(CN2CCN(c3ccc(C(=O)NS(=O)(=O)c4ccc(N[C@H](CCN5CCOCC5)CSc5ccccc5)c(S(=O)(=O)C(F)(F)F)c4)cc3)CC2)C1 [Navitoclax] (partner 0.5 µM)
Procedure, shortened: as §1

NVP-TAE684 + Vorinostat = compound: COc1cc(N2CCC(N3CCN(C)CC3)CC2)ccc1Nc1ncc(Cl)c(Nc2ccccc2S(=O)(=O)C(C)C)n1 [NVP-TAE684] + O=C(CCCCCCC(=O)Nc1ccccc1)NO [Vorinostat] (partner 1 µM)
Procedure, shortened: as §1

| Cell Line | relative viability (CUDC-101 + Lapatinib; first compound 0.01 µM) | relative viability (CUDC-101 + Lapatinib; first compound 0.03162 µM) | relative viability (CUDC-101 + Lapatinib; first compound 0.1 µM) | relative viability (CUDC-101 + Lapatinib; first compound 0.3162 µM) | relative viability (CUDC-101 + Lapatinib; first compound 1 µM) | relative viability (CUDC-101 + Olaparib; first compound 0.01 µM) | relative viability (CUDC-101 + Olaparib; first compound 0.03162 µM) | relative viability (CUDC-101 + Olaparib; first compound 0.1 µM) | relative viability (CUDC-101 + Olaparib; first compound 0.3162 µM) | relative viability (CUDC-101 + Olaparib; first compound 1 µM) | relative viability (NVP-TAE684 + Bortezomib; first compound 0.2 µM) | relative viability (NVP-TAE684 + Bortezomib; first compound 0.6325 µM) | relative viability (NVP-TAE684 + Bortezomib; first compound 2 µM) | relative viability (NVP-TAE684 + Navitoclax; first compound 0.2 µM) | relative viability (NVP-TAE684 + Navitoclax; first compound 0.6325 µM) | relative viability (NVP-TAE684 + Navitoclax; first compound 2 µM) | relative viability (NVP-TAE684 + Vorinostat; first compound 0.2 µM) | relative viability (NVP-TAE684 + Vorinostat; first compound 0.6325 µM) | relative viability (NVP-TAE684 + Vorinostat; first compound 2 µM) |
| --- | --- | --- | --- | --- | --- | --- | --- | --- | --- | --- | --- | --- | --- | --- | --- | --- | --- | --- | --- |
| NCI-H2405 | 1.25 | 1.05 | 1.19 | 1.27 | 0.917 | 0.901 | 0.844 | 0.861 | 0.908 | 0.817 | 0.941 | 0.986 | 0.82 | 0.897 | 0.709 | 0.437 | 1.09 | 0.896 | 0.518 |
| NCI-H3122 | 1.07 | 0.984 | 0.882 | 1.02 | 1.01 | 0.61 | 0.647 | 0.625 | 0.598 | 0.558 | 0.763 | 0.218 | 0.162 | 0.282 | 0.525 | 0.176 | 0.273 | 0.229 | 0.103 |
| PC-3 [JPC-3] | 0.419 | 0.462 | 0.443 | 0.364 | 0.32 | 1.09 | 0.959 | 0.821 | 0.515 | 0.479 | 0.99 |  | 0.731 | 0.862 | 0.822 | 0.658 | 0.908 | 0.72 | 0.578 |
| PC-14 | 0.328 | 0.282 | 0.315 | 0.321 | 0.171 | 0.273 | 0.317 | 0.295 | 0.165 | 0.0702 |  | 0.928 | 0.964 | 1.13 | 1.05 | 0.894 | 0.44 | 0.69 | 0.144 |
| RERF-LC-KJ | 0.893 | 0.905 | 0.841 | 0.826 | 0.698 | 0.939 | 0.917 | 0.92 | 0.818 | 0.699 | 0.952 | 1.25 | 0.916 | 1.14 | 1.04 | 0.67 | 0.589 | 0.644 | 0.48 |
| SK-LU-1 | 1.01 | 0.922 | 0.712 | 0.844 | 0.446 | 0.473 | 0.503 | 0.421 | 0.487 | 0.434 | 1.21 | 1.08 | 1.01 | 1.12 | 0.88 | 0.206 |  | 0.822 | 0.487 |
| SW 1573 | 1.05 | 1.15 | 1.23 | 1.2 | 0.813 | 0.634 | 0.477 | 0.587 | 0.603 | 0.349 | 1.02 |  | 0.927 | 0.904 | 0.959 | 0.737 | 0.745 | 0.636 | 0.346 |
